Source: patent publication US5679638A, “Method for treating a tumor with a chemotherapeutic agent” (Biopure Corporation, priority 1993, dated 1997)
“And” between values parts separate entries of the source, which are not always exact repeats. Equal values may be shown once. Where a name gives a salt, the structure may show the parent alone.

Assays:
[1] = test system: Lewis lung carcinoma lung metastases; assay: Lung metastases of Lewis lung carcinoma; format: in vivo, mouse (male C57BL); design: Lung Metastases: unit not given here
Protocol: (§1) The Lewis lung tumor was carried in male C57BL mice (Taconic Laboratories, Germantown, N.Y.). For the experiments, 2×10^6 tumor cells prepared from a brei of several stock tumors were implanted subctaneously into the legs of male mice aged 8-10 weeks. […] Animals bearing Lewis lung tumors were treated daily with intraperitoneal Mino (10 mg/kg), Diflun (15 mg/kg) or Sulin (15 mg/kg) on days 4-18 following tumor implantation. When the tumors had reached a volume of approximately 100 mm^3 (day 7 after tumor cell implantation), cytotoxic therapy was initiated.
Therapy consisted of treatment with an antitumor alkylating agent, an antitumor antimetabolite, a non-steroidal anti-inflammatory drug (NSAID) and/or UPHS. […] CTX therapy consisted of three successive 150 mg/kg CTX doses administered by intraperitoneal injections on days 7, 9 and 11. BCNU therapy consisted of three successive 15 mg/Kg BCNU doses administered by intraperitoneal injections on days 7, 9 and 11. Therapy with the antimetabolite 5-fluorouracil(5-FU) consisted of 4 successive 40 mg/kg 5-FU doses administered by intraperitoneal injections daily on days 7 to 11. The 5-FU was purchased from Sigma Chemical Co., St. Louis, Mo. Fourteen doses of 10 mg/kg of NSAID were administered daily by intraperitoneal injections on days 4 to 18. UPHS was injected into the tail vein in 8 ml/kg doses daily on days 7-11. […]

[2] = test system: Lewis lung carcinoma; assay: Lewis lung carcinoma growth delay; format: in vivo, mouse (male C57BL); conditions: for Lewis lung carcinoma growth delay, Mean Days: NSAID days 4-18
Protocol: as §1
Therapy consisted of treatment with an antitumor alkylating agent, an antitumor antimetabolite, a non-steroidal anti-inflammatory drug (NSAID) and/or UPHS. […] CTX therapy consisted of three successive 150 mg/kg CTX doses administered by intraperitoneal injections on days 7, 9 and 11. BCNU therapy consisted of three successive 15 mg/Kg BCNU doses administered by intraperitoneal injections on days 7, 9 and 11. Therapy with the antimetabolite 5-fluorouracil(5-FU) consisted of 4 successive 40 mg/kg 5-FU doses administered by intraperitoneal injections daily on days 7 to 11. The 5-FU was purchased from Sigma Chemical Co., St. Louis, Mo. Fourteen doses of 10 mg/kg of NSAID were administered daily by intraperitoneal injections on days 4 to 18. UPHS was injected into the tail vein in 8 ml/kg doses daily on days 7-11.
The progress of each tumor was measured thrice weekly until it had reached a volume of 500 mm^3. Tumor growth delay was calculated as the number of days required for each treated tumor to reach a volume of 500 mm^3 as compared with untreated control tumors. Each treatment group comprised six animals and the experiment was repeated three times.
On the twentieth day after the subcutaneous tumor implantation, the delay in Lewis Lung Carcinoma tumor growth was evaluated. Tumor growth delay data is presented as the mean value ±SE calculated for the treatment group as compared with the control group.

[3] = test system: intracranial 9L gliosarcoma; assay: Life span of rats with intracranial 9L gliosarcoma; format: in vivo, rat (male Fischer 344)
Protocol: (§2) The 9L gliosarcoma (9L) cells were obtained as a gift of 9L/SF gliosarcoma cells from Dr. Dennis Dean, University of California, San Francisco. These cells were maintained in culture in .varies.-MEM (Grand Island Biological Co., Grand Island, N.Y.) and supplemented with 10% fetal bovine serum (Sterile Systems, Inc., Logan, Utah) and with antibiotics. The 9L cells (4×10^4) in 10 μL of media without serum were implanted intracranially in male Fischer 344 rats (Taconic Farms, Germantown, N.Y.) weighing 200-250 gm on day 0. Each rat was anesthetized with sodium pentobarbital. A midline scalp incision was made and a hole was bored through the skull with 23 gauge needle at a point 2 mm lateral to the midline. The cell suspension was injected into the right frontal lobe at a depth of 3 mm from the dural surface. The needle was removed and the hole filled with dental cement. The scalp was sealed with a surgical clip. Two days later 9L cells (2×10^6) were implanted subcutaneously into the flank of each animal. When the tumors were approximately 100 mm^3 in volume, 7 days after tumor cell implantation, 8 ml/kg of UPHS was injected via the tail vein. After injecting the UPHS, administration of chemotherapeutic agents was initiated. […] BCNU therapy consisted of three 15 mg/kg BCNU doses administered by intraperitoneal injection days 7, 9 and 11. CTX and ifosfamide (IFOS) therapy consisted of three 100 mg/kg CTX or IFOS doses administered by intraperitoneal injection on days 7, 9 and 11. For the BCNU, CTX and IFOS therapies, UPHS was intravenously administered prior to each chemotherapeutic agent injection on days 7, 9 and 11. The IFOS was purchased from the Dana-Farber Cancer Institute. Survival of animals was monitored daily. Animals that were moribund or unable to reach food or water were killed by CO2 inhalation.
The effect of the treatments on the growth of the intracranial tumor was determined by the increase in life span of treated groups compared with the untreated controls. A percentage increase in life span of 25% or more is therapeutically significant.

[4] = test system: subcutaneous 9L gliosarcoma; assay: Subcutaneous 9L gliosarcoma tumor growth delay; format: in vivo, rat (male Fischer 344)
Protocol: as §2
The progress of each subcutaneous tumor was measured 3 times/week until it reached a volume of 500 mm^3. Tumor growth delay was calculated as the number of days for each individual tumor to reach 500 mm^3 compared with untreated controls. Each treatment group had 4 animals and the experiment was repeated twice. Days of tumor growth delay are the mean ±SE for the treatment group compared with the control.

[5] = WITH UPHS (8 ml/kg daily days 7-11), CDDP or PAM 10 mg/kg, CTX 3 x 150, BCNU 3 x 15, 5-FU 40 mg/kg
[6] = WITHOUT UPHS, CDDP or PAM 10 mg/kg day 7, CTX 3 x 150, BCNU 3 x 15 mg/kg days 7, 9, 11, 5-FU 40 mg/kg
[7] = relative statement among BCNU, CTX, CDDP, IFOS

SMILES | Lung Metastases ([1]; WITH UPHS) | Lung Metastases (% Large) ([1]; WITH UPHS) [%] | Lung Metastases ([1]; WITHOUT UPHS) | Lung Metastases (% Large) ([1]; WITHOUT UPHS) [%] | Lewis lung carcinoma growth delay, Mean Days [2, 5] [days] | Lewis lung carcinoma growth delay, Mean Days [2, 6] [days] | Increase of growth delay by addition of UPHS ([2]; drug + UPHS vs drug) | % Increased from Control (life span) ([3]; Table II, vs untreated control) | Survival Days ([3]; Table II, control 26 ± 2.2 days, CDDP 8 mg/kg day 7, BCNU 3 x 15, CTX or IFOS 3 x 100 mg/kg days 7, 9, 11, UPHS 8 ml/kg) | Increase in life span with UPHS prior to the drug therapy ([3]; UPHS prior to drug, vs untreated control) [%] | Significance of increase in life span, drug alone ([3]; drug alone, 25% or more is therapeutically significant) | Increase in therapeutic response upon addition of UPHS ([3]; intracranial (life span) and subcutaneous (growth delay) 9L tumors) | Effectiveness against intracranial 9L tumors [3, 7] | Subcutaneous 9L Tumor Growth Delay, Mean Days ([4]; Table III, days to 500 mm^3 vs control (19.5 ± 0.5 days), CDDP 8 mg/kg day 7, BCNU 3 x 15, CTX or IFOS 3 x 100 mg/kg, UPHS 8 ml/kg) [days] | Increase in tumor growth delay by prior administration of UPHS ([4]; UPHS + drug vs drug alone) [fold] | Effectiveness against subcutaneous 9L tumors [4, 7] | Effect of addition of NSAIDs (with or without UPHS) to cytotoxic agents on growth delay ([2]; mouse, in vivo)
O=c1[nH]cc(F)c(=O)[nH]1 [5-FU, 5-fluorouracil] | 15 | 40 | 21 | 52 | 6.3 ± 0.5 | 5.4 ± 0.4 | also enhanced, to a lesser degree | – | – | – | – | – | – | – | – | – | –
O=P1(NCCCl)OCCCN1CCCl (centres unmarked) [IFOS, ifosfamide] | – | – | – | – | – | – | – | 19% and 38% | 30.9 days and 35.9 days | 38 | did not reach significance | greatest increases in therapeutic response upon addition of UPHS | least effective treatments for intracranial 9L tumors | 10.4 ± 0.9 | 1.4 | very effective treatments for subcutaneously growing 9L tumors | –
CC1=C(CC(=O)O)c2cc(F)ccc2/C1=C\c1ccc([S+](C)[O-])cc1 (centres unmarked) [Sulin, Sulindac] | 21 | 57 | 19 | 55 | 0.5 ± 0.3 | 1.2 ± 0.4 | – | – | – | – | – | – | – | – | – | – | providing the best NSAID results
CN(C)c1ccc(O)c2c1C[C@H]1C[C@H]3[C@H](N(C)C)C(O)=C(C(N)=O)C(=O)[C@@]3(O)C(O)=C1C2=O [Mino, minocycline hydrochloride] | 20 | 65 | 20 | 50 | 1.0 ± 0.4 | 0.8 ± 0.3 | – | – | – | – | – | – | – | – | – | – | –
O=C(O)c1cc(-c2ccc(F)cc2F)ccc1O [Diflun, Diflunisal] | 20 | 55 | 20 | 51 | 0.9 ± 0.3 | 0.3 ± 0.2 | – | – | – | – | – | – | – | – | – | – | –
